± gives the expanded uncertainty stated by the source.
Conditions: Crystal; DTA

Normal melting temperature: 231.98 ± 1.1 °C
SMILES: C=C1C[C@@]23CC[C@H]4[C@@](C)(CCC[C@@]4(C)C(=O)O[C@@H]4O[C@H](CO)[C@@H](O)[C@H](O)[C@H]4O)[C@@H]2CC[C@]1(O[C@@H]1O[C@H](CO)[C@@H](O)[C@H](O[C@@H]2O[C@H](CO)[C@@H](O)[C@H](O)[C@H]2O)[C@H]1O[C@@H]1O[C@H](CO)[C@@H](O)[C@H](O)[C@H]1O)C3 [rebaudioside A]

From the NIST ThermoML archive (doi:10.1021/acs.jced.8b00780)
